Test results reported in article PMC10694292, “Increased sinusoidal export of drug glucuronides is a compensative mechanism in liver cirrhosis of mice” (Frontiers in Pharmacology, 2023).
Converted amounts (≈) assume the structure as drawn. Where two headings read alike, the source gives them in different places.

How the values were obtained:
[1] = cited from earlier work
[2] = rats; ref Fukuda et al., 2008; cited from earlier work
[3] = system: OATP1B1; set-up: method as in Nakai et al., 2001; settings: human, experimental; ref Nakai et al., 2001; cited from earlier work
[4] = humans; ref Everett et al., 1991; cited from earlier work
[5] = mouse, in vivo
[6] = rat; ref Fukuda et al., 2008; cited from earlier work
[7] = ref Thiel et al., 2015, cited from earlier work

In the case of `CC[C@H](C)C(=O)O[C@H]1C[C@H](O)C=C2C=C[C@H](C)[C@H](CC[C@@H](O)C[C@@H](O)CC(=O)O)[C@H]21` [Pravastatin, pravastatin], the Solubility ([1]; DrugBank, ref Wishart et al., 2017) is given as 10000 µg/mL (≈ 23.6 mM), the Lipophilicity ([1]; MSDS, ref Wishart et al., 2017) is given as 0.59 and the Lipophilicity ([1]; experimental pH=5, ref Serajuddin et al., 1991) is given as 1.6. For the same molecule, the Lipophilicity ([1]; experimental pH=7, ref Serajuddin et al., 1991) was -0.23, the Lipophilicity ([1]; human, optimized, ref Lippert et al., 2012) was 0.82 and the “pKa (Acid)” value ([1]; ref Wishart et al., 2017, Puttegowda et al., 2016) was 4.2. For the same molecule, the “Dose found in bile” value [2] was “about 60%”, the Km [3] was 11.5 µM and the “Dose recovered unchanged from urine” value [4] was “about 41%”. The “Mean fraction of dose excreted to urine” value [5] was “Less than 1%”, the “Fraction of dose in urine (24 h), cirrhotic vs control mice” value ([5]; iv) was “increased significantly” and the Fraction unbound [6] was 0.672. For the same molecule, the Vmax ([7]; Oatp1b2, optimized for mice with measured human Km) was 2.5 µmol/L/min and the Fraction unbound ([7]; mouse, optimized (talinolol: possibly optimized)) was 0.73.
